Earlier results on one compound are cited in publication PMC9926234, “Iterative computational design and crystallographic screening identifies potent inhibitors targeting the Nsp3 macrodomain of SARS-CoV-2” (Proceedings of the National Academy of Sciences of the …, 2023).

SMILES strings stand for the structures.

For this data set, the target named is SARS-CoV-2 NSP3 Mac1 (Severe acute respiratory syndrome coronavirus 2, UniProt P0DTD1). Also noted: method as in PMID 33853786. Particulars: cited from earlier work.

Take `Nc1ccc(C(=O)O)cc1` [ZINC920, 4-aminobenzoic acid]: the “binding to Mac1 in the fragment screen, result in words” value is “did not bind”.
